Values quoted from earlier work in US20100284985A1, “Composition” (Danisco A/S, priority 2007, published 2010).

Test system: common food spoilage yeasts and moulds
Conditions: most strains of common food spoilage yeasts and moulds; cited from earlier work

Question: With `C[C@@H]1C/C=C/C=C/C=C/C=C/[C@H](O[C@@H]2O[C@H](C)[C@@H](O)[C@H](N)[C@@H]2O)C[C@@H]2O[C@](O)(C[C@@H](O)C[C@H]3O[C@@H]3/C=C/C(=O)O1)C[C@H](O)[C@H]2C(=O)O` [natamycin] as the compound, how does the “concentrations inhibiting most strains” value read?
Answer: Its value is 1-15 ppm.
